Measured values from patent publication US20260284214A1, “EXATECAN DERIVATIVE AND ANTIBODY-DRUG CONJUGATE THEREOF” (priority 2023, published 2026).
Read-outs that look alike come from different tables or passages of the source.

What was measured:
[1] = Metabolism stability test in liver microsomes; assay type: in vitro ADME; conditions: human liver microsomes; for CLint scaled / half-life / microsomal CLint: pH 7.4; for microsomal CLint: read-out: CLint(mic)
Procedure: The experiment was intended to detect metabolic stabilities of the compounds in the present disclosure in human liver microsomes.
• Human Liver Microsomes (Corning, Cat No. 452117)
Experimental method: each incubation system contained a phosphate buffer solution (PBS, pH 7.4), a liver microsomal protein, a to-be-tested sample (acetonitrile solution) and NADPH, incubated in water bath at 37° C., and the same volume of cold acetonitrile (comprising an internal standard) was added 0, 5, 15, 30, 45 and 60 minutes after reaction respectively to terminate the reaction. The sample solution was centrifuged, 80 μL of the supernatant was taken and 240 μL of ultrapure water was added, and the remaining amount of the prototype substrate was detected by LC-MS/MS method. The negative control was incubated with a human liver microsome NCF group (without NADPH).

hERG potassium channel = hERG potassium channel (Homo sapiens, UniProt Q12809); assay: hERG experiment, manual patch clamp; assay type: cell-based; conditions: HEK-293 cells stably expressing hERG; for inhibition at 10 µM: human, read-out: hERG current inhibition rate % (Mean ± SE, n = 2)
Procedure: Inhibitory effects of the compound of Example 2, the compound of Example 3 and Dxd on an hERG potassium channel were studied by a manual patch clamp technique (a gold standard of hERG safety evaluation), and the risk of ventricular repolarization toxicity caused was evaluated.
The weighed test sample was prepared into a 10 mM stock solution with DMSO, and then the stock solution of the test object was diluted into 3.33 mM intermediate dilution with DMSO. Then, 30 μL of the dilution was added into 10 mL of extracellular fluid to prepare 10 μM working solution, it was ensured that a DMSO content was 0.3%, then 50 μL of F68 was added to the extracellular fluid to enhance a solubility of the test object, and an F68 concentration was 0.5%. Solutions at all concentrations were subjected to ultrasound treatment for 20 minutes. The solubility of the sample was visually observed, and there was no visible precipitation in the 10 μM to-be-tested solution of the test object.
An HEK-293 cell line stably expressing the hERG potassium channel was adopted, and hERG potassium channel cells were purchased from Creacell Company (article number: A-0320). Cell culture method:
The HEK-293 cell line stably expressing the hERG potassium channel was cultured in a DMEM culture medium containing 10% fetal bovine serum and 0.8 mg/mL G418 at a culture temperature of 37° C. under a carbon dioxide concentration of 5%.
Cell passage: the old culture medium was removed, and the cells were washed once with PBS, then 1 mL of TrypLE™ Express solution was added, and the mixture was incubated at 37° C. for about 0.5 minutes. When the cells were separated from a dish bottom, about 5 mL of complete culture medium preheated at 37° C. was added. A cell suspension was gently blown with a straw to separate the aggregated cells. The cell suspension was transferred to a sterile centrifuge tube and centrifuged at 1000 rpm for 5 minutes to collect the cells. […]
An inhibitory effect of the test object on the hERG channel was detected by the manual patch clamp technique.

[2] = In-vivo pharmacokinetics of compounds in SD rats; conditions: intravenous; for clearance / half-life / AUC(0-t) at 8 h / Vd: rat, plasma; for AUC(0-t) at 8 h: read-out: AUC0-8 h; for Vd: read-out: Vz
Procedure: SD rats were taken as test animals to study in-vivo pharmacokinetics behaviors after injection administration of the compounds of the present disclosure to male and female SD rats at dosages of 1 mg/kg and 3 mg/kg.
• Species: male and female SD rats (2 female rats and 2 male rats/group) • Grade: SPF grade • Weight: about 200 g • Source: Hunan SJA Laboratory Animal Co., Ltd.
Male and female SD rats were injected with the test sample solution, and Compound 2 of the example and the Dxd were given in a dosage of 1 mg/kg and a dosage volume of 4 mL/kg. Compound 3 of the example and the Dxd were given in a dosage of 3 mg/kg and a dosage volume of 5 mL/kg.
Preparation of test sample solution: the test sample was dissolved with a solvent (10% DMSO-60% PEG400-30% (20% HP-β-CD-water)), and DMSO, PEG 400 and 20% HP-β-CD-water were added sequentially during preparation.
0 before administration, and 5 minutes, 15 minutes, 0.5 hours, 1 hour, 2 hours, 3 hours, 5 hours and 8 hours after administration.
0.2 mL of blood was collected and placed into an EDTA-2K anticoagulant tube. The anticoagulant tube was turned upside down gently to fully mix the anticoagulant (EDTA-2K) with the blood, and then immediately placed into wet ice, and plasma was centrifuged for separation within 1 hour after blood collection at 4° C. and 6800 g for 6 minutes. After centrifugation, the plasma was separated and stored in an ultra-low-temperature refrigerator as soon as possible until sample analysis.

Sequence of hERG potassium channel (Q12809 whole entry): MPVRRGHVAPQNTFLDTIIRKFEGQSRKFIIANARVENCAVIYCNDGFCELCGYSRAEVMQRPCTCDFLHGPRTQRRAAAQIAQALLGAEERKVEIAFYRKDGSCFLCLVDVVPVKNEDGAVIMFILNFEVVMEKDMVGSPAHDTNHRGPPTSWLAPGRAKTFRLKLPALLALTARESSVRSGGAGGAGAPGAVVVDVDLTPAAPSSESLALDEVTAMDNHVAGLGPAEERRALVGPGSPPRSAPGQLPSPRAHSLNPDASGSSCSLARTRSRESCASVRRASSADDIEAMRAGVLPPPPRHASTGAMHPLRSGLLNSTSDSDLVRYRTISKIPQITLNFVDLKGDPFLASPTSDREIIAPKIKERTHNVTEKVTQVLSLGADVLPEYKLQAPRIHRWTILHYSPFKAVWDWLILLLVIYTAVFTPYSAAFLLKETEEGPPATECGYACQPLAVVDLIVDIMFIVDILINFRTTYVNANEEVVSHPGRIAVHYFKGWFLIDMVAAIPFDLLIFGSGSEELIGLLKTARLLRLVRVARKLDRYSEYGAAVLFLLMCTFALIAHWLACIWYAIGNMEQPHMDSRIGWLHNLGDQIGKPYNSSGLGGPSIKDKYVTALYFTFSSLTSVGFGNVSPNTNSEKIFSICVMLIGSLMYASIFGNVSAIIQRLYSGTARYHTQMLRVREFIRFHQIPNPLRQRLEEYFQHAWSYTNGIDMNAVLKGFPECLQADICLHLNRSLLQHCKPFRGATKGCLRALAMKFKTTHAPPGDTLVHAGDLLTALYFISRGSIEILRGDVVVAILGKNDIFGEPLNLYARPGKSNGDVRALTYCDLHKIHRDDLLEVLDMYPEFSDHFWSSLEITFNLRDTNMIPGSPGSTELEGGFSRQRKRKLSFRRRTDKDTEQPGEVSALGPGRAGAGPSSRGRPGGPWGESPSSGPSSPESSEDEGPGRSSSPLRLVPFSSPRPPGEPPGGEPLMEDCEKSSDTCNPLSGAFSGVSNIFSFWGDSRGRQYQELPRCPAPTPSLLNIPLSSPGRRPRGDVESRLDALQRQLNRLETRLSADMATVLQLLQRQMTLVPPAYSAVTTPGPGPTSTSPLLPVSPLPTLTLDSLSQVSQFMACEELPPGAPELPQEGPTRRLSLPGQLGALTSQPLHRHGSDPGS

Row | Compound | CLint scaled [1] | half-life ([1]; NADPH, 37° C.) | microsomal CLint [1] | inhibition at 10 µM (hERG potassium channel) | clearance ([2]; 1 mg/kg) | half-life ([2]; 1 mg/kg) | AUC(0-t) at 8 h ([2]; 1 mg/kg) | Vd ([2]; 1 mg/kg) | clearance ([2]; 3 mg/kg) | half-life ([2]; 3 mg/kg) | AUC(0-t) at 8 h ([2]; 3 mg/kg) | Vd ([2]; 3 mg/kg) | CLint(liver) [1] | CLint(mic) [1] | T1/2 ([1]; NADPH, 37° C.) | hERG current inhibition rate % (Mean ± SE, n = 2) (hERG potassium channel; 10 μM) | AUC0-8 h ([2]; 1 mg/kg) | CL ([2]; 1 mg/kg) | T1/2 ([2]; 1 mg/kg) | Vz ([2]; 1 mg/kg)
1 | CC[C@@]1(O)C(=O)OCc2c1cc1n(c2=O)Cc2c-1nc1cc(F)c(C)c3c1c2[C@@H](NC(=O)CO)CC3 [Dxd] | 12.3 mL/min/kg | 1.69 h | 13.6 µL/min/mg | 10.3% | 69.2 mL/min/kg | 1.3 h | 240 ng·h/mL | 7.96 L/kg | 65.7 mL/min/kg | 1.96 h | 760 ng·h/mL | 10.9 L/kg |  |  |  |  |  |  |  | 
2 | C#CCN(CCO)C(=O)N[C@H]1CCc2c(C)c(F)cc3nc4c(c1c23)Cn1c-4cc2c(c1=O)COC(=O)[C@]2(O)CC [Example 2] |  |  |  |  |  |  |  |  |  |  |  |  | 20.0 mL/min/kg | 22.2 µL/min/mg | 1.04 h | 2.89% ± 1.86% | 77.9 ng·h/mL | 12700 mL/min/kg | 1.59 h | 29 L/kg
3 | C=CCN(CCO)C(=O)N[C@H]1CCc2c(C)c(F)cc3nc4c(c1c23)Cn1c-4cc2c(c1=O)COC(=O)[C@]2(O)CC [Example 3, 1-allyl-3-((1S,9S)-9-ethyl-5-fluoro-9-hydroxy-4-methyl-10,13-dioxo-2,3,9,10,13,15-hexahydro-1H,12H-benzo[de]pyrano[3′,4′:6,7]indolizino[1,2-b]quinolin-1-yl)-1-(2-hydroxyethyl)urea] | 23.7 mL/min/kg | 0.877 h | 26.4 µL/min/mg | 15.8% |  |  |  |  | 124 mL/min/kg | 1.73 h | 405 ng·h/mL | 18.7 L/kg |  |  |  |  |  |  |  | 
